Results as given in patent US12605403B2, “Compositions and methods for treating transient biofilms” (WIAB WATER INNOVATION AB, priority 2016, dated 2026).

Key:
Escherichia coli = test: hand disinfection test, transient bacteria on hands of subjects (Handrub procedure PN-EN 1500:2013-07); assay type: in vivo; conditions: 18 subjects, E. coli on hands, hand rub
Method: Tests were performed on the hands of healthy subjects to determine the transient bacteria killing effect of the disclosed compositions. The subjects washed their hands, and dipped their fingertips into Escherichia coli. The disclosed compositions were applied to the subjects' hands by rubbing the disclosed compositions into the skin to stimulate the removal of the transient bacteria on the skin. The same test was performed using prior art alcohol compositions.
Tests were performed on the hands of healthy subjects to determine the transient bacteria killing effect of the disclosed compositions.
In this experiment, 18 subjects washed their hands, and dipped their fingertips into a solution of Escherichia coli. Once the subjects' hands were dry, aliquots of the disclosed composition (5 mL of 160 ppm HOCl, 0.13% Hac) were applied to the subjects' dry hands and rubbed into the skin for 30 to stimulate the removal of the transient bacteria on the skin, according to Handrub procedure PN-EN 1500:2013-07.

natural bacteria = test: hand and forearm rub test, effect on natural bacteria of the skin (Handrub procedure PN-EN 12791:2005); assay type: in vivo; conditions: hands of 20 subjects
Method: In another experiment aliquots of the disclosed composition (3 mL of 0.03% HOCl, 0.13% Hac) were applied to each of the hands of 20 subjects. […] The composition was rubbed into the hands and forearms for 5 minutes to maintain exposure to the compositions according to Handrub procedure PN-EN 12791:2005.
Bacteria kills of Escherichia coli, Pseudomonas aeruginosa, Staphylococcus areus, and Enterococcus hirae were measured immediately after the application and again 3 hours after application.

In the case of `CC(C)O` [2-propanol 60% v/v, 2-propanol], the “reduction of the presence of the transient bacteria” value (Escherichia coli) was 4 log.

In the case of `CCCO` [propan-1-ol, 60% v/v, propan-1-ol], the “reduction of the natural bacteria” value (natural bacteria; 3 hours after application) was 2.16 log and the “reduction of the natural bacteria” value (natural bacteria; immediately after application) was 2.48 log.
